Measured values as given in patent US8420823B2, “Long-chain fatty acyl elongase inhibitor comprising arylsulfonyl derivative as active ingredient” (MSD K.K., priority 2008, dated 2013).
Where a name gives a salt, the structure may show the parent alone.

molecular target: T1, human LCE (Homo sapiens, UniProt Q9H5J4); assay: LCE enzyme activity-inhibitory test; assay type: biochemical; conditions: [14C]-malonyl CoA / palmitoyl CoA substrate, 37° C., 90 minutes
T1 sequence (Q9H5J4 1-265): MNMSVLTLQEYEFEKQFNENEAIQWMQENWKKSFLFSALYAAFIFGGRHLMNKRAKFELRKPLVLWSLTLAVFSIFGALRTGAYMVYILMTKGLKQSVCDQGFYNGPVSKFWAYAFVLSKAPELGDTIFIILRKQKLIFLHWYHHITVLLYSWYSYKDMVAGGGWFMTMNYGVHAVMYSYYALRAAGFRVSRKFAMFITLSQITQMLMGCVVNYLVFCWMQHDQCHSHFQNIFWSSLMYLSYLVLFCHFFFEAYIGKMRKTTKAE
Experimental: Pharmacological Test Example 1 (LCE Enzyme Activity-inhibitory Test)
A test compound was dissolved in dimethyl sulfoxide (DMSO to be 10 mM), and then diluted with DMSO to prepare a 1000-fold concentrated solution of the test concentration. An improved Moon et al's method (J. Biol. Chem., Vol. 276, pp. 45358-45366, 2001) was employed for the LCE enzyme activity-inhibitor test. Concretely, the diluted compound was applied to a 96-well assay plate (Corning, 96-well assay block) in an amount of 1.0 μL/well; 50 μL of a phosphate buffer solution (100 mM potassium phosphate buffer, pH 6.5), and 25 μL of a substrate solution (100 mM potassium phosphate buffer (pH 6.5), 4.0 μM rotenone, 80 μM fatty acid-free bovine serum albumin, 160 μM palmitoyl CoA, 80 μM malonyl CoA, 3.5 μM [^14C]-malonyl CoA (1.92 GBq/mmol, by Amersham)) were added to each well; 25 μL of an enzyme solution (100 mM potassium phosphate buffer (pH 6.5), 100 μg/mL human LCE) was added thereto; the top of the plate was airtightly sealed up; and this was incubated with gently shaking and stirring at 37° C. for 90 minutes. Next, 100 μL of 5 M hydrochloric acid was added to each well, and the assay plate was stirred at room temperature for 5 minutes to stop the enzyme reaction with hydrolyzing the acyl CoA. Next, the enzyme reaction solution in each well was adsorbed by each well of a 96-well GF/C filter plate (Perkin Elmer Unifilter 96 GF/C); the individual wells were washed with water to remove the non-adsorbed malonyl CoA; and the GF/C filter plate was dried at 50° C. for 60 minutes. Next, 30 μL of a scintillator (Perkin Elmer Microscinti 0) was added to each well; then the top of the plate was sealed up; and the fixed [^14C] radioactivity was measured with a microplate scintillation counter (Perkin Elmer TopCount) to be the enzyme activity. The human LCE enzyme-inhibitory activity of the test compound was calculated, based on the radioactivity of the DMSO-added well with no test compound therein as a control.

Compared with `CC(C)Oc1ccc(NC(=O)c2cccc(S(=O)(=O)N3C[C@H]4C[C@@H]3CO4)c2)cc1` [Example 1, N-(4-isopropoxyphenyl)-3-[(1R,4R)-2-oxa-5-azabicyclo[2.2.1]hept-5-ylsulfonyl]benzamide], `CC(C)Oc1ccc(NC(=O)c2cccc(S(=O)(=O)N3C[C@@H]4C[C@H]3CO4)c2)cc1` [Example 10, N-(4-isopropoxyphenyl)-3-[(1S,4S)-2-oxa-5-azabicyclo[2.2.1]hept-5-ylsulfonyl]benzamide] is 2.9-fold lower in IC50: 2200 nM for the first, 760 nM for the second.

Compared with `CC(C)Oc1ccc(NC(=O)c2cccc(S(=O)(=O)N3CC4CCC3C4)c2)cc1` (stereo not drawn) [Example 2, 3-(2-Azabicyclo[2.2.1]hept-2-ylsulfonyl)-N-(4-isopropoxyphenyl)benzamide], `CC(C)Oc1ccc(NC(=O)c2cccc(S(=O)(=O)N3CC4CCC3CC4)c2)cc1` [Example 16, 3-(2-Azabicyclo[2.2.2]oct-2-ylsulfonyl)-N-(4-isopropoxyphenyl)benzamide] is 3.1-fold higher in IC50: 36 nM for the first, 110 nM for the second.

`CC(C)Oc1ccc(NC(=O)c2cccc(S(=O)(=O)N3CCc4[nH]ncc4C3)c2)cc1` [Example 3, N-(4-isopropoxyphenyl)-3-(1,4,6,7-tetrahydro-5H-pyrazolo[4,3-c]pyridin-5-ylsulfonyl)benzamide trifluoroacetate] and `CC(C)Oc1ccc(NC(=O)c2cccc(S(=O)(=O)N3CCc4o[nH]c(=O)c4C3)c2)cc1` [Example 22, N-(4-isopropoxyphenyl)-3-[(3-oxo-2,3,6,7-tetrahydroisoxazolo[4,5-c]pyridin-5(4H)-yl)sulfonyl]benzamide] are within 1.5-fold of each other in IC50: 7400 nM for the first, 5100 nM for the second.

Going from `CC(C)Oc1ccc(NC(=O)c2cccc(S(=O)(=O)N3CC4CC5CC(C4)CC3C5)c2)cc1` [Example 4, 3-(4-Azatricyclo[4.3.1.1^3,8]undec-4-ylsulfonyl)-N-(4-isopropoxyphenyl)benzamide] to `CC(C)Oc1ccc(NC(=O)c2cccc(S(=O)(=O)N3C[C@@H]4C[C@H]3CN4C)c2)cc1` [Example 8, N-(4-isopropoxyphenyl)-3-{[(1S,4S)-5-methyl-2,5-diazabicyclo[2.2.1]hept-2-yl]sulfonyl}benzamide trifluoroacetate], the IC50 rises from 5100 nM to 9600 nM (1.9-fold). The first is the more potent here.

Compared with `CC(C)Oc1ccc(NC(=O)c2cccc(S(=O)(=O)N3CCCC(c4nc5ccccc5[nH]4)C3)c2)cc1` (stereo not drawn) [Example 5, 3-{[3-(1H-benzimidazol-2-yl)piperidin-1-yl]sulfonyl}-N-(4-isopropoxyphenyl)benzamide], `CC(C)Oc1ccc(NC(=O)c2cccc(S(=O)(=O)N3CCCC(c4nc5ccccc5o4)C3)c2)cc1` (stereo not drawn) [Example 7, 3-{[3-(1,3-benzoxazol-2-yl)piperidin-1-yl]sulfonyl}-N-(4-isopropoxyphenyl)benzamide] is 1.7-fold higher in IC50: 30 nM for the first, 51 nM for the second.

First: CC(C)Oc1ccc(NC(=O)c2cccc(S(=O)(=O)NC(C3CC3)C3CC3)c2)cc1 [Example 6, 3-{[(dicyclopropylmethyl)amino]sulfonyl}-N-(4-isopropoxyphenyl)benzamide]
Second: CC(C)Oc1ccc(NC(=O)c2cccc(S(=O)(=O)N3CCC(F)CC3)c2)cc1 [Example 15, 3-[(4-Fluoropiperidin-1-yl)sulfonyl]-N-(4-isopropoxyphenyl)benzamide]
The IC50 of the first is 9.2-fold higher: 1100 nM for the first, 120 nM for the second.

`CC(C)Oc1ccc(NC(=O)c2cccc(S(=O)(=O)N3CCOC(COc4ccccc4)C3)c2)cc1` (stereo not drawn) [Example 9, N-(4-isopropoxyphenyl)-3-{[2-(phenoxymethyl)morpholin-4-yl]sulfonyl}benzamide] and `CC(C)Oc1ccc(NC(=O)c2cccc(S(=O)(=O)N3CCCC(OCc4ccccn4)C3)c2)cc1` (stereo not drawn) [Example 21, N-(4-isopropoxyphenyl)-3-{[3-(pyridin-2-ylmethoxy)piperidin-1-yl]sulfonyl}benzamide trifluoroacetate] are within 1.5-fold of each other in IC50: 150 nM for the first, 200 nM for the second.

First: CC(C)Oc1ccc(NC(=O)c2cccc(S(=O)(=O)N3CCCC(c4nncn4C)C3)c2)cc1 (stereo not drawn) [Example 11, N-(4-isopropoxyphenyl)-3-{[3-(4-methyl-4H-1,2,4-triazol-3-yl)piperidin-1-yl]sulfonyl}benzamide trifluoroacetate]
Second: COC1CCCN(S(=O)(=O)c2cccc(C(=O)Nc3ccc(OC(C)C)cc3)c2)C1 (stereo not drawn) [Example 18, N-(4-isopropoxyphenyl)-3-[(3-methoxypiperidin-1-yl)sulfonyl]benzamide]
The IC50 of the first is 2-fold higher: 1000 nM for the first, 510 nM for the second. The second is the more potent here.

`CC(C)Oc1ccc(NC(=O)c2cccc(S(=O)(=O)N3CCN4CCCC4C3)c2)cc1` (stereo not drawn) [Example 12, 3-(Octahydropyrrolo[1,2-a]pyrazin-2(1H)-ylsulfonyl)-N-(4-isopropoxyphenyl)benzamide trifluoroacetate] and `CC(C)Oc1ccc(NC(=O)c2cccc(S(=O)(=O)N3CCN4CCCCC4C3)c2)cc1` (stereo not drawn) [Example 13, N-(4-Isopropoxyphenyl)-3-(octahydro-2H-pyrido[1,2-a]pyrazin-2-ylsulfonyl)benzamide trifluoroacetate] are within 1.5-fold of each other in IC50: 6800 nM for the first, 5200 nM for the second.

Going from `CC(C)Oc1ccc(NC(=O)c2cccc(S(=O)(=O)N3CCCC(CN4CCOCC4)C3)c2)cc1` (stereo not drawn) [Example 14, N-(4-Isopropoxyphenyl)-3-{[3-(morpholin-4-ylmethyl)piperidin-1-yl]sulfonyl}benzamide trifluoroacetate] to `CC(C)Oc1ccc(NC(=O)c2cccc(S(=O)(=O)N3CCC[C@@H]3C)c2)cc1` [Example 23, N-(4-isopropoxyphenyl)-3-{[(2S)-2-methylpyrrolidin-1-yl]sulfonyl}benzamide], the IC50 falls from 1200 nM to 130 nM (9.2-fold).

Compared with `CC(C)Oc1ccc(NC(=O)c2cccc(S(=O)(=O)N3CCC(F)(F)CC3)c2)cc1` [Example 17, 3-[(4,4-Difluoropiperidin-1-yl)sulfonyl]-N-(4-isopropoxyphenyl)benzamide], `CC(C)Oc1ccc(NC(=O)c2cccc(S(=O)(=O)N3CCCC(F)(F)C3)c2)cc1` [Example 19, 3-[(3,3-Difluoropiperidin-1-yl)sulfonyl]-N-(4-isopropoxyphenyl)benzamide] is 4.4-fold higher in IC50: 340 nM for the first, 1500 nM for the second. The first is the more potent here.

`CC(C)Oc1ccc(NC(=O)c2cccc(S(=O)(=O)N3CCCC(OCc4cccnc4)C3)c2)cc1` (stereo not drawn) [Example 20, N-(4-isopropoxyphenyl)-3-{[3-(pyridin-3-ylmethoxy)piperidin-1-yl]sulfonyl}benzamide trifluoroacetate] and `CC(C)Oc1ccc(NC(=O)c2cccc(S(=O)(=O)N3CCC[C@H]3C)c2)cc1` [Example 24, N-(4-isopropoxyphenyl)-3-{[(2R)-2-methylpyrrolidin-1-yl]sulfonyl}benzamide] are within 1.5-fold of each other in IC50: 530 nM for the first, 670 nM for the second.

First: CC(C)Oc1ccc(NC(=O)c2cccc(S(=O)(=O)NCC(C)c3nc4ccccc4[nH]3)c2)cc1 (stereo not drawn) [Example 25, 3-({[2-(1H-benzimidazol-2-yl)propyl]amino}sulfonyl)-N-(4-isopropoxyphenyl)benzamide]
Second: CC(C)c1ccc(NC(=O)c2cccc(S(=O)(=O)N3[C@H](C)CC[C@H]3C)c2)cc1 [Example 26, 3-{[(2R,5R)-2,5-dimethylpyrrolidin-1-yl]sulfonyl}-N-(4-isopropylphenyl)benzamide]
The IC50 of the first is 12-fold lower: 280 nM for the first, 3500 nM for the second.

`CC(C)c1ccc(NC(=O)c2cccc(S(=O)(=O)N3CCCCCC3)c2)cc1` [Example 27, 3-(Azepan-1-ylsulfonyl)-N-(4-isopropylphenyl)benzamide] and `CC(C)c1ccc(NC(=O)c2cccc(S(=O)(=O)N3CCCC3)c2)cc1` [Example 28, N-(4-isopropylphenyl)-3-(pyrrolidin-1-ylsulfonyl)benzamide] are within 1.5-fold of each other in IC50: 190 nM for the first, 170 nM for the second.

Compared with `CC(C)c1ccc(NC(=O)c2cccc(S(=O)(=O)N3CCOCC3)c2)cc1` [Example 29, N-(4-isopropylphenyl)-3-(morpholin-4-ylsulfonyl)benzamide], `CC(C)c1ccc(NC(=O)c2cccc(S(=O)(=O)N3CC[C@@H](F)C3)c2)cc1` [Example 33] is 14-fold higher in IC50: 180 nM for the first, 2600 nM for the second.

First: CC(C)c1ccc(NC(=O)c2cccc(S(=O)(=O)N3CCCCC3C)c2)cc1 (stereo not drawn) [Example 30, N-(4-isopropylphenyl)-3-[(2-methylpiperidin-1-yl)sulfonyl]benzamide]
Second: CC(C)c1ccc(NC(=O)c2cccc(S(=O)(=O)N3[C@H](C)CCC[C@@H]3C)c2)cc1 [Example 31, 3-{[(2R,6S)-2,6-dimethylpiperidin-1-yl]sulfonyl}-N-(4-isopropylphenyl)benzamide]
The IC50 of the first is 28-fold lower: 100 nM for the first, 2800 nM for the second. The first is the more potent here.

Work on `CC(C)c1ccc(NC(=O)c2cccc(S(=O)(=O)N3CCCC(O)C3)c2)cc1` (stereo not drawn) [Example 32, 3-[(3-Hydroxypiperidin-1-yl)sulfonyl]-N-(4-isopropylphenyl)benzamide] yielded an IC50 of 100 nM.
